Here are results for two compounds from patent US20130261130A1, “NEUROTRYPSIN INHIBITORS” (priority 2010, published 2013).

Data set [1] addresses T1, human neurotrypsin (Homo sapiens, UniProt P56730).
T1 sequence (P56730 21-875): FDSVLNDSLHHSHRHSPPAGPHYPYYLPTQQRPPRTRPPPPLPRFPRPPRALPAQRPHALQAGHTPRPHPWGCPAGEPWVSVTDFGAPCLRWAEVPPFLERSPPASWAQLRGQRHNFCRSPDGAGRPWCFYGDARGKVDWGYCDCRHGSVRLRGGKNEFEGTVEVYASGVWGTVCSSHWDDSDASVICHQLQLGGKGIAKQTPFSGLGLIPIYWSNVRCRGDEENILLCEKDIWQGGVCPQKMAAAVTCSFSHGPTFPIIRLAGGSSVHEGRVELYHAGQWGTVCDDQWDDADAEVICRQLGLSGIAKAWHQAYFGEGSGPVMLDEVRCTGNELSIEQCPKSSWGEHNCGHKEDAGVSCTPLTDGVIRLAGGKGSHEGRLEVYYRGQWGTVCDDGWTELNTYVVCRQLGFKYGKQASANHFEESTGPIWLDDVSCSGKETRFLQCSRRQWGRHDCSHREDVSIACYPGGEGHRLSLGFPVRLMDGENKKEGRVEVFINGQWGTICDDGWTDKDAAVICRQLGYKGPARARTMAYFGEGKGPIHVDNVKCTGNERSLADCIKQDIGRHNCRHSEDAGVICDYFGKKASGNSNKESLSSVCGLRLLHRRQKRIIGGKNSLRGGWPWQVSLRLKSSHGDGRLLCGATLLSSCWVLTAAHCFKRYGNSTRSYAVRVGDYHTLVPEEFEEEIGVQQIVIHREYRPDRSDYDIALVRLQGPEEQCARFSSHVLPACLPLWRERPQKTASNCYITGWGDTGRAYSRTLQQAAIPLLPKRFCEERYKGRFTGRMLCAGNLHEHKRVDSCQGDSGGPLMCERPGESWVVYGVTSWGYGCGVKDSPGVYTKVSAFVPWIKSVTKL
The data set is described as follows: Determination of IC50 for human neurotrypsin. In kind it is biochemical. The method, then:
Assessment of the potency of compounds of examples 1-311 in inhibiting the enzymatic activity of human neurotrypsin was performed according to the method described in patent application WO 2006/1103261

For data set [2], the target named is T2, uPA (Homo sapiens, UniProt P00749).
T2 construct: purchased American diagnostic
The data set is described as follows: Determination of the IC50 for various proteases: uPA. In kind it is biochemical. The conditions noted are these: Mean ± SD. The method, then:
(§1) A 6 mM solution of the test compound in DMSO was prepared. In a V-bottom micro plate the 6 mM compound solution was diluted 6 times in DMSO to obtain a concentration row with the following concentrations: 6 mM, 1.8 mM, 540 μM, 162 μM, 48.8 μM, 14.4 μM, and 4 μM. From this DMSO master plate 1:20 dilutions in 10 mM MOPS pH 8.3 were prepared to obtain solutions of 300, 90, 27, 8.1, 2.44, 0.72 and 0.22 μM in MOPS buffer and 5% DMSO.
(§2) 100 μl of this solution were pipetted into a flat bottom 96 well microplate and placed into a Tecan infinite 200 plate reader. Before measurement, 50 μl of protease solution and, subsequently 50 μl substrate solution were added by the machine. The liberation of free para nitroanilide was detected at 405 nm. The protease solution was freshly prepared by diluting to the desired concentration from a stock solution in 60 mM MOPS; 600 mM NaCl; 20 mM CaCl2; 10% DMSO; 0.4% PEG 6000 pH 8.3. The substrate solution was prepared by dissolving the solid substrate in an adequate amount of water to get the desired concentrations. The used protease and substrate solutions are given below:
(§3) All enzymes except trypsin were from human origin (American diagnostic). Trypsin is hog trypsin (Sigma Aldrich). Substrates were purchased from Chromogenix. […]

Data set [3] addresses T3, tPA (Homo sapiens, UniProt P00750).
T3 construct: purchased American diagnostic
The data set is described as follows: Determination of the IC50 for various proteases: tPA. In kind it is biochemical. The conditions noted are these: Mean ± SD. The procedure: as §1, §2, §3

The target of data set [4] is Kallikrein (Homo sapiens, UniProt P03952). Briefly: Determination of the IC50 for various proteases: kallikrein. In kind it is biochemical. The conditions noted are these: Mean ± SD. The method, then: as §1, §2, §3
Chain of Kallikrein (P03952 whole entry): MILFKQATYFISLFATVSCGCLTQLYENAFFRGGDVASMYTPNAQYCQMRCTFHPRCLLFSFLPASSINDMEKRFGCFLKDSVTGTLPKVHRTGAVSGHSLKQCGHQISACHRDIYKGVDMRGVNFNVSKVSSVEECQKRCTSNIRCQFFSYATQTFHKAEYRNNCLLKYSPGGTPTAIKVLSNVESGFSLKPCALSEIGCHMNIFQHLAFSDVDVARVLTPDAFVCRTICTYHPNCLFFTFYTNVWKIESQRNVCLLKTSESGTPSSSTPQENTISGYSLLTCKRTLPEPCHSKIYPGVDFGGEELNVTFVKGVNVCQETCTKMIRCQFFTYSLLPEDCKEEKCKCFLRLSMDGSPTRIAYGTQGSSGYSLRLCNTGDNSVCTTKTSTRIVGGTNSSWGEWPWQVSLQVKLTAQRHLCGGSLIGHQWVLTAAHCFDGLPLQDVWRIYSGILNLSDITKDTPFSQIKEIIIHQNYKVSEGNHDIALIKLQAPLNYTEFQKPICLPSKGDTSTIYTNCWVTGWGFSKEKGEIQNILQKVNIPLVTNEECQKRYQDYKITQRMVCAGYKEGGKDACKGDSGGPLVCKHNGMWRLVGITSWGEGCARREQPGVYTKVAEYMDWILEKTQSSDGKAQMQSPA
Data set [5] concerns the target T4, Thrombin (Homo sapiens, UniProt P00734).
T4 construct: Thrombin; purchased American diagnostic
Briefly: Determination of the IC50 for various proteases: thrombin. In kind it is biochemical. The conditions noted are these: Mean ± SD. The method, then: as §1, §2, §3

In data set [6] the target is T5, Plasmin (Homo sapiens, UniProt P00747).
T5 construct: Plasmin; purchased American diagnostic
T5 sequence (P00747 581-810 limits assumed): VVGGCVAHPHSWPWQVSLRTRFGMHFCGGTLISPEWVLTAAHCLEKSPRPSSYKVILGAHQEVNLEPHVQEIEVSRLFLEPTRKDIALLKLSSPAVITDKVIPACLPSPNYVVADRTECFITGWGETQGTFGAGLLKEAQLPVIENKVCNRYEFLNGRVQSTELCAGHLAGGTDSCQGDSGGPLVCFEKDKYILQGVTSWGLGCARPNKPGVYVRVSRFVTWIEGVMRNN
T5 sequence (P00747 97-580 partner limits assumed): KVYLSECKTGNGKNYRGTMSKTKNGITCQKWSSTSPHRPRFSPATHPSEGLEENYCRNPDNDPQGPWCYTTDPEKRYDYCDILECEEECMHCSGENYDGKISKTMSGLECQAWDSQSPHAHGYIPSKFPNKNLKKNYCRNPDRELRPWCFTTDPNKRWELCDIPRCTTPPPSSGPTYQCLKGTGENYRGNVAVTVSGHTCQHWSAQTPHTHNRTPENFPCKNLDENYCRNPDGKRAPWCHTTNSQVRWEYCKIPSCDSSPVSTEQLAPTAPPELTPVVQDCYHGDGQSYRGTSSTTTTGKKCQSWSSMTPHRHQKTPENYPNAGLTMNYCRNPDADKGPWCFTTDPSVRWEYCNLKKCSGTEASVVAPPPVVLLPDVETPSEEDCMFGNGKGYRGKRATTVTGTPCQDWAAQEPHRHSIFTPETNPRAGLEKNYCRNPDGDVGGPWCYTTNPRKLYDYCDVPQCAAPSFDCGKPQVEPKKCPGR
Briefly: Determination of the IC50 for various proteases: plasmin. The conditions noted are these: Mean ± SD. It is filed as biochemical. The method, then: as §1, §2, §3

Data set [7] deals with T6, Factor Xa (Homo sapiens, UniProt P00742).
T6 construct: Factor Xa; purchased American diagnostic
T6 sequence (P00742 235-488 limits assumed): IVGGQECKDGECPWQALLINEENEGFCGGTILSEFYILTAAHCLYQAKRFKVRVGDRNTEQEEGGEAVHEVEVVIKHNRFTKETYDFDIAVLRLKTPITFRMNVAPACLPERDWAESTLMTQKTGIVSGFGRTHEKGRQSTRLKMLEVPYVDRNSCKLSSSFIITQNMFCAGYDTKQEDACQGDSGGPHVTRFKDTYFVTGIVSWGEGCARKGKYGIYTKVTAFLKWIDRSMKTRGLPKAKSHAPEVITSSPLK
T6 sequence (P00742 41-179 partner limits assumed): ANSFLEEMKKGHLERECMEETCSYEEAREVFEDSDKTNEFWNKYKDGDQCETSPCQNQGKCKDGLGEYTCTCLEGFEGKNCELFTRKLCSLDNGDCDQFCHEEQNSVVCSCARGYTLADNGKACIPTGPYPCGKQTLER
Briefly: Determination of the IC50 for various proteases: Factor Xa. It is filed as biochemical. The conditions noted are these: Mean ± SD. The procedure:
as §1, §2, §3

Data set [8] addresses T7, Trypsin (hog trypsin) (Sus scrofa, UniProt P00761).
T7 construct: Trypsin is hog trypsin (Sigma Aldrich); purchased Sigma Aldrich
Briefly: Determination of the IC50 for various proteases: trypsin. In kind it is biochemical. The conditions noted are these: Mean ± SD. The procedure:
as §1, §2, §3

Data set [9] has as its system C-terminal agrin fragment (CAF). Briefly: Analysis of serum CAF levels by western blotting. In kind it is in vivo, C57/BL6 mice. The procedure: (§4) Adult (P50) C57/BL6 mice from Charles River were used for the experiments. All animal experiments are performed in accordance with international guidelines for proper conduct of animal experiment under jurisdiction of the Swiss law (Permit number ZH-18/2008). For every mouse in the experiment the well-being during the interventions is documented in a score sheet.
(§5) Example 119, mono-lysine salt, was prepared for the dosing as suspension in 20% DMSO, 80% PBS with a final concentration of 2.5 mg/ml active compound (corresponding to 3.13 mg/ml of the lysine salt). First, compound of Example 119, mono-lysine salt, was dissolved in DMSO at a concentration of 15.7 mg/ml. Then sterile PBS was added to get a final concentration of 3.13 mg/ml and the suspension was thoroughly vortexed. The suspension was kept at room temperature in the dark until used.
(§6) 5 adult mice were treated with 10 ml/kg of a 3.13 mg/ml suspension of Example 119, mono-lysine salt. This corresponds to a dose of 25 mg/kg active ingredient. As vehicle control 5 mice were treated with 10 ml/kg of 20% DMSO in PBS. Each mouse received three intraperitoneal injections. Between dose 1 and dose 2 there were 8 h, between dose 2 and dose 3 16 h. 5 h after the last injection the mice were euthanatized with CO2.
Before the first injection the mice were weighted and ˜100 μl of blood was collected from the lateral tail vein. Serum was prepared with centrifugation of blood samples in Microvette 500 Z-Gel tubes (10'000 g, 20° C., 5 min). Supernatant was transferred to an Eppendorf reaction tube and centrifuged again (21'000 g, 20° C., 5 min). Supernatant was transferred to screw top reaction tubes and the serum was stored at −20° C. until analysis. […]
After staining for CAF the membrane was washed thoroughly and reused for a staining for endogenous mouse antibodies that served as loading control. […] After imaging with a Stella imaging system (Raytest) the intensity of the CAF bands was measured with AIDA picture analysis software (Raytest) and normalized to the loading levels determined from mouse antibody light chains. […]
(In western blotting, separated proteins are transferred to a membrane and probed.)

A short description of data set [10]: Effect of compound on body weight in mice. In kind it is in vivo, C57/BL6 mice. The conditions noted are these: 25 mg/kg active ingredient, three intraperitoneal injections. The procedure:
as §4
The mice are housed under optimal hygienic conditions (OHB) with controlled air-conditioning and lighting (temperature: 20-24° C., humidity: 55-65%, day/night cycle: 12 h/12 h, lights on 7 a.m.). Individually ventilated cages of type II, L (530 cm^2 floor space) with standard litter are used. A maximum of 6 mice is kept in each cage. Mice are fed with standard rodent chow (Extrudat, KLIBA NAFAG) ad libitum and have free access to drinking water. Animal colony is managed and maintained at BioSupport, Schlieren.
as §5, §6
Before the first injection the mice were weighted and ˜100 μl of blood was collected from the lateral tail vein. Serum was prepared with centrifugation of blood samples in Microvette 500 Z-Gel tubes (10'000 g, 20° C., 5 min). […]

Structures can show the parent of a compound that is named as a salt. Where two headings read alike, the source gives them in different places.

T7 sequence (P00761 9-231): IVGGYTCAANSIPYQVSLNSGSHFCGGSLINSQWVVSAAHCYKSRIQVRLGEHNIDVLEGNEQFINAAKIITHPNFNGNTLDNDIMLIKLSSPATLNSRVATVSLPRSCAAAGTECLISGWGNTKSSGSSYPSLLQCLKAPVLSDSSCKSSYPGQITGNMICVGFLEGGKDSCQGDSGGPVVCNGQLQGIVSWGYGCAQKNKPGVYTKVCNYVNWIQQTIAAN
T3 sequence (P00750 36-562): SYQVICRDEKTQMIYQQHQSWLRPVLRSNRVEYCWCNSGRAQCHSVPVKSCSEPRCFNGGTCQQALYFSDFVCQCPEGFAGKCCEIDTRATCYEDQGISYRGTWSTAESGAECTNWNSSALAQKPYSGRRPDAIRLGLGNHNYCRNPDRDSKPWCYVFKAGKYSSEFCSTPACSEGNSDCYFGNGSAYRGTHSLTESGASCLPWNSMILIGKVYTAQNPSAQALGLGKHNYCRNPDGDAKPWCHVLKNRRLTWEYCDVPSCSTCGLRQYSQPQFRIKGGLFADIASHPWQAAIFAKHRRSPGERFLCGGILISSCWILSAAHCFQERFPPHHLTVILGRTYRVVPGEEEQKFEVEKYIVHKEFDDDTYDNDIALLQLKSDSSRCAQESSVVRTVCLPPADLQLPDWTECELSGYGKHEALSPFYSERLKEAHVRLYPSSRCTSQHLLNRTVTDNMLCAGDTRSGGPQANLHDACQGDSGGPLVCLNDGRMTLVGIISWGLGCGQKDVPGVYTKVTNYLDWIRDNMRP

In general, IC50 refers to the point on the concentration scale where inhibition reaches its midpoint. As to `O=C(Nc1ccc(Cl)cc1)c1ccc(NC(=O)c2ccc(-c3nc4cc(Cl)c(Cl)cc4[nH]3)cc2)c(C(=O)O)c1` [Example 119], the IC50 in data set [1] (Mean ± SD, read-out: IC50 Neurotrypsin) is 0.51 ± 0.16 µM; in [1] (human neurotrypsin, method of WO 2006/1103261, read-out: Neurotrypsin IC50) it was 0.4 µM; in [2] it was over 40 µM; in data set [3] it was 47.1 ± 22.4 µM; in [4] it was 27.1 ± 9.2 µM; in data set [5], 37.7 ± 25.2 µM. The IC50 in [6] is 2.4 ± 1.6 µM; in [7] it was 39.8 ± 33.3 µM; in data set [8] it was over 150 µM.
On to `O=C(Nc1ccc(Cl)cc1)c1ccc(NC(=O)c2ccc(-c3nc4cc(Cl)c(Cl)cc4[nH]3)cc2)c(C(=O)O)c1` [Example 119, mono-lysine salt], for which the “CAF levels Average (AU)” value in data set [9] (pooled mouse serum, western blot, post-treatment, 25 mg/kg i.p. x3, normalized to loading control, KO background subtracted) worked out at 0.38 AU. Moreover, the “CAF levels Average (% of vehicle)” value in data set [9] (pooled mouse serum, western blot, post-treatment, 25 mg/kg i.p. x3, normalized to the vehicle level) is 56.15 % of vehicle. The CAF levels in data set [9] (serum, pooled samples, mice, 25 mg/kg active ingredient, three intraperitoneal injections, 5 h after last injection, mean ± standard deviation) is 56.2%±29.0 % of vehicle control. In addition, in [10] (adult mice), the “increase in weight loss compared to the vehicle control” value is reported as “does not produce any increase in weight loss compared to the vehicle control”. Moreover, in data set [10] (adult mice, post-treatment/pre-treatment weight), the Weight loss is listed as under 10%. The “Average weight loss (% of T = 0 weigth)” value in data set [10] (mice, weighed before first injection and 5 h after last, n=5) is reported as 5.52 % of T = 0 weigth.
